Measured values from the supplement of paper PMC10331698.
± gives the standard deviation of the averaged measurements.

What was measured:
[1] = compound: OCC(F)(F)C(F)(F)C(F)(F)C(F)(F)C(F)(F)C(F)(F)CO [1H,1H,8H,8H-Perfluorooctane-1,8-diol] (in DMSO); assay: level (log10 ratio to DMSO vehicle control); higher = higher biomarker level / cell amount than vehicle control
Description: (§1)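 BioMAP Diversity Plus panel of 12 human primary cell co-culture systems (3C, 4H, LPS, SAg, BT, BF4T, BE3C, CASM3C, HDF3CGF, KF3CT, MyoF, Mphg). Compounds were added 1 h before stimulation and left for 24 h (MyoF 48 h; BT 72 h for soluble read-outs or 6 d for IgG). Biomarkers were read by ELISA, cytotoxicity by SRB, PBMC viability and proliferation by Alamar Blue. Each well value was divided by the mean of 8 DMSO control wells on the same plate and log10 transformed; duplicate blinded samples were tested at 4 concentrations.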

Perfluoroundecanoic acid = compound: O=C(O)C(F)(F)C(F)(F)C(F)(F)C(F)(F)C(F)(F)C(F)(F)C(F)(F)C(F)(F)C(F)(F)C(F)(F)F [Perfluoroundecanoic acid] (in DMSO); assay: as above; conditions: 6700 nM
Description: as §1

Row | Test System | level (log10) ([1]; 6700 nM) | level (log10) ([1]; 20000 nM) | level (log10) ([1]; 60000 nM) | level (log10) (Perfluoroundecanoic acid)
1 | BT:PBMC Cytotoxicity | 0.0065 ± 0.0092 | -0.0145 ± 0.011 | -0.0595 ± 0.011 | 0.0085 ± 0.029
2 | LPS:IL-1alpha | -0.0355 ± 0.049 | -0.064 ± 0.016 | -0.004 ± 0.017 | -0.103 ± 0.019
3 | BF4T:MMP-9 | -0.019 ± 0.03 | -0.008 ± 0.011 | 0.0075 ± 0.0092 | -0.056 ± 0.04
4 | LPS:CD106/VCAM-1 | -0.008 ± 0.0057 | -0.011 ± 0.023 | -0.0275 ± 0.018 | -0.0095 ± 0.043
5 | BE3C:HLA-DR | 0.009 | -0.0245 ± 0.0064 | -0.039 ± 0.014 | -0.0815 ± 0.022
6 | LPS:CD142/Tissue Factor | 0.011 ± 0.1 | 0.0075 ± 0.033 | -0.0095 ± 0.054 | -0.023 ± 0.014
7 | BE3C:CXCL9/MIG | 0.004 ± 0.0085 | 0 ± 0.016 | -0.006 ± 0.0071 | -0.0125 ± 0.0064
8 | BT:sIL-2 | 0.0065 ± 0.063 | 0.008 ± 0.027 | 0.0055 ± 0.04 | 0.03 ± 0.033
9 | SAg:PBMC Cytotoxicity | -0.0045 ± 0.03 | 0.036 ± 0.062 | 0.0305 ± 0.033 | 0.006 ± 0.0028
10 | 3C:CXCL9/MIG | 0.0015 ± 0.0035 | -0.0025 ± 0.005 | 0.0105 ± 0.013 | 0.0025 ± 0.005
11 | 4H:CCL26/Eotaxin-3 | 0.0095 ± 0.019 | 0.0125 ± 0.019 | 0.0125 ± 0.0021 | 0.016 ± 0.03
12 | SAg:SRB | 0.009 ± 0.0085 | 0.0045 ± 0.005 | 0.0025 ± 0.021 | 0.0015 ± 0.0092
13 | BT:B cell Proliferation | -0.029 ± 0.024 | -0.007 ± 0.038 | -0.0195 ± 0.052 | -0.0035 ± 0.025
14 | LPS:sTNF-alpha | -0.123 ± 0.074 | -0.145 ± 0.041 | -0.146 ± 0.018 | -0.0415 ± 0.00071
15 | 3C:Proliferation | -0.059 ± 0.024 | -0.0565 ± 0.013 | -0.106 ± 0.042 | 0.027 ± 0.013
16 | BT:sIL-17A | -0.0535 ± 0.14 | -0.25 ± 0.073 | -0.393 ± 0.085 | -0.06 ± 0.25
17 | BF4T:PAI-I | 0.018 ± 0.013 | 0 ± 0.0099 | -0.0065 ± 0.011 | 0.007 ± 0.0085
18 | BF4T:CD106/VCAM-1 | -0.006 ± 0.014 | 0.001 ± 0.0014 | -0.006 ± 0.0057 | -0.032 ± 0.041
19 | BE3C:CXCL11/I-TAC | -0.006 ± 0.0085 | -0.0045 ± 0.026 | -0.0165 ± 0.0064 | -0.114 ± 0.047
20 | LPS:CD40 | -0.031 ± 0.0057 | -0.0375 ± 0.032 | -0.0555 ± 0.049 | -0.019 ± 0.05
21 | BF4T:IL-1alpha | -0.0105 ± 0.011 | -0.0135 ± 0.013 | 0.0145 ± 0.029 | -0.014 ± 0.023
22 | BF4T:Keratin 8/18 | -0.0005 ± 0.0021 | 0.021 ± 0.0014 | -0.003 ± 0.0042 | 0 ± 0.014
23 | BT:sTNF-alpha | -0.057 ± 0.045 | -0.0705 ± 0.036 | -0.097 ± 0.18 | 0.06 ± 0.02

Row | Test System | level (log10) ([1]; 6700 nM) | level (log10) ([1]; 20000 nM) | level (log10) ([1]; 60000 nM) | level (log10) (Perfluoroundecanoic acid)
24 | SAg:CD40 | -0.024 ± 0.05 | -0.0115 ± 0.064 | -0.0525 ± 0.043 | -0.013 ± 0.0028
25 | BF4T:CCL2/MCP-1 | -0.0075 ± 0.0064 | -0.017 ± 0.0014 | -0.009 ± 0.024 | -0.009 ± 0.023
26 | BF4T:CXCL8/IL-8 | -0.003 ± 0.0042 | -0.0095 ± 0.0064 | 0.001 ± 0.0071 | 0.0815 ± 0.026
27 | BF4T:SRB | -0.002 ± 0.0042 | -0.0005 ± 0.0035 | -0.007 ± 0.0071 | -0.0115 ± 0.0035
28 | 4H:CD87/uPAR | -0.013 ± 0.0014 | -0.0065 ± 0.0021 | -0.03 ± 0.017 | -0.008 ± 0.025
29 | 3C:CXCL8/IL-8 | -0.0045 ± 0.0021 | -0.0055 ± 0.0064 | 0.0245 ± 0.023 | -0.022 ± 0.02
30 | 3C:SRB | 0.012 ± 0.017 | 0.0035 ± 0.025 | -0.0045 ± 0.04 | 0.0095 ± 0.015
31 | 4H:SRB | 0.0105 ± 0.0021 | 0.006 ± 0.0071 | -0.01 ± 0.025 | -0.0105 ± 0.011
32 | LPS:CD141/Thrombomodulin | -0.008 ± 0.027 | -0.032 ± 0.0042 | 0.028 ± 0.034 | 0.018 ± 0.016
33 | SAg:CD38 | -0.0105 ± 0.011 | -0.003 ± 0.02 | -0.013 ± 0.0028 | -0.0175 ± 0.022
34 | SAg:CXCL9/MIG | -0.0055 ± 0.0021 | 0.0035 ± 0.0064 | 0.02 ± 0.0085 | 0.0005 ± 0.0064
35 | LPS:M-CSF | -0.0285 ± 0.019 | -0.025 ± 0.017 | -0.013 ± 0.048 | 0.049 ± 0.0028
36 | BE3C:CD54/ICAM-1 | 0.013 ± 0.0057 | 0.0185 ± 0.018 | -0.003 ± 0.03 | 0.004 ± 0.016
37 | 4H:VEGFR2 | -0.0165 ± 0.042 | 0.01 ± 0.018 | 0.047 ± 0.068 | -0.008 ± 0.0085
38 | 4H:CD62P/P-selectin | -0.039 ± 0.0028 | 0.004 ± 0.011 | 0.0355 ± 0.0021 | 0.064 ± 0.0028
39 | SAg:CD62E/E-Selectin | 0.0005 ± 0.00071 | -0.026 ± 0.0028 | -0.016 ± 0.0042 | 0.034 ± 0.038
40 | LPS:CD62E/E-Selectin | -0.0495 ± 0.013 | -0.0295 ± 0.022 | -0.044 ± 0.024 | -0.014 ± 0.016
41 | BE3C:IL-1alpha | 0.002 ± 0.0042 | 0.0015 ± 0.0064 | 0.0055 ± 0.029 | -0.069 ± 0.0042
42 | BF4T:CCL26/Eotaxin-3 | 0.004 ± 0.0057 | -0.009 ± 0.033 | -0.019 ± 0.018 | -0.212 ± 0.014
43 | BF4T:MMP-3 | -0.013 ± 0.0042 | 0.018 ± 0.013 | -0.0095 ± 0.0021 | -0.002 ± 0.038
44 | LPS:CCL2/MCP-1 | -0.004 ± 0.018 | -0.0115 ± 0.018 | -0.0135 ± 0.036 | 0.0015 ± 0.0078
45 | 3C:HLA-DR | -0.0115 ± 0.015 | -0.007 ± 0.0085 | -0.0175 ± 0.026 | -0.023 ± 0.0014
46 | BT:Secreted IgG | -0.0265 ± 0.016 | -0.0095 ± 0.016 | -0.098 ± 0.0099 | 0.003 ± 0.011

Row | Test System | level (log10) ([1]; 6700 nM) | level (log10) ([1]; 20000 nM) | level (log10) ([1]; 60000 nM) | level (log10) (Perfluoroundecanoic acid)
47 | BT:sIL-17F | -0.0015 ± 0.03 | -0.158 ± 0.12 | -0.208 ± 0.0092 | -0.0225 ± 0.056
48 | 4H:CD106/VCAM-1 | -0.0295 ± 0.005 | 0.015 ± 0.023 | -0.007 ± 0.0085 | -0.03 ± 0.0057
49 | BE3C:CXCL8/IL-8 | -0.021 ± 0.027 | -0.0325 ± 0.023 | -0.0245 ± 0.066 | -0.113
50 | LPS:SRB | 0.0005 ± 0.0092 | -0.003 ± 0.0014 | -0.0035 ± 0.023 | 0.005 ± 0.0057
51 | SAg:CCL2/MCP-1 | -0.0075 ± 0.00071 | -0.015 ± 0.0071 | -0.0085 ± 0.00071 | -0.0155 ± 0.0035
52 | BF4T:CD90 | -0.011 ± 0.023 | -0.005 ± 0.028 | -0.014 ± 0.018 | -0.016 ± 0.0028
53 | SAg:Proliferation | -0.0035 ± 0.033 | 0 ± 0.025 | -0.0055 ± 0.039 | 0.0125 ± 0.059
54 | BE3C:CD87/uPAR | -0.002 ± 0.0085 | 0.026 ± 0.0085 | -0.0195 ± 0.00071 | 0.138 ± 0.019
55 | 3C:CD87/uPAR | -0.0245 ± 0.026 | -0.0125 ± 0.0092 | -0.019 ± 0.0028 | -0.0125 ± 0.005
56 | BE3C:CXCL10/IP-10 | 0.003 ± 0.013 | -0.006 ± 0.0014 | -0.018 ± 0.0028 | -0.4655 ± 0.0021
57 | BF4T:CD54/ICAM-1 | -0.0275 ± 0.0092 | -0.015 ± 0.013 | -0.029 ± 0.017 | -0.0175 ± 0.026
58 | SAg:CXCL8/IL-8 | -0.0205 ± 0.04 | -0.0245 ± 0.019 | 0.0095 ± 0.035 | -0.021 ± 0.0028
59 | LPS:sPGE2 | -0.0255 ± 0.012 | 0.022 ± 0.0057 | -0.0015 ± 0.016 | -0.0665 ± 0.044
60 | LPS:CXCL8/IL-8 | -0.0075 ± 0.011 | -0.0305 ± 0.0064 | -0.0125 ± 0.021 | -0.04 ± 0.035
61 | 4H:CCL2/MCP-1 | -0.058 ± 0.04 | -0.0485 ± 0.018 | -0.012 ± 0.02 | -0.024 ± 0.023
62 | SAg:CD69 | -0.022 ± 0.031 | -0.002 ± 0.0071 | -0.0145 ± 0.015 | -0.0285 ± 0.018
63 | BF4T:tPA | -0.011 ± 0.014 | -0.024 ± 0.0057 | -0.025 ± 0.0085 | -0.043 ± 0.037
64 | BT:sIL-6 | -0.029 ± 0.045 | -0.078 ± 0.016 | -0.216 ± 0.054 | 0.0325 ± 0.019
65 | LPS:CD69 | 0.014 ± 0.0099 | -0.006 ± 0.045 | -0.0125 ± 0.028 | -0.0585 ± 0.05
66 | BE3C:EGFR | -0.019 ± 0.024 | -0.01 ± 0.017 | -0.0315 ± 0.005 | -0.064 ± 0.0014
67 | BF4T:uPA | -0.005 ± 0.0042 | -0.0035 ± 0.0092 | -0.0035 ± 0.012 | 0.0275 ± 0.0064
68 | BF4T:MMP-1 | -0.0055 ± 0.0064 | -0.0135 ± 0.022 | 0.019 ± 0.03 | -0.0045 ± 0.005
